Data reported in article PMC12718081 (ACS Infectious Diseases, 2025).
“And” between values parts separate entries of the source, which are not always exact repeats. Identical values can stand only once. “Also recorded” adds a separate entry of the source. Like-named read-outs stand apart in the source and are kept apart here.

Tests used:
[1] = target: Eg.TRPMPZQ (Echinococcus granulosus, UniProt W6UVV9); test: cell-based; settings: HEK293, Ca2+ reporter, mean ± standard deviation; for Emax: read-out: Bmax, Eg.TRPMPZQ activation
[2] = test system: adult schistosomes (male and female worms); test: Adult worm ex vivo high-content image-based motility assay; type: cell-based, Schistosoma mansoni
Protocol: Adult schistosomes’ motility was determined using a high-content assay previously developed by our group, , with images analyzed in CellProfiler software. More details are provided in the Supporting Information.
(§1) Adult worm ex-vivo high-content assay
“Area” and “False Negative Rate” from the MeasureObjectSizeShape and MeasureObjectOverlap modules, respectively. These measurements were then modeled by a multilevel generalized linear statistical model. The effects of the experimental treatments on […]
(§2) The half-maximal inhibitory
(§3) Windows (GraphPad Software, Boston, MA, USA; www.graphpad.com). […]
with DMSO as a negative control.

[3] = test system: Sm.TRPMMCLZ; test: Ca2+ reporter (FLIPR) activation assay, Sm.TRPMMCLZ in HEK293 cells; type: cell-based, Schistosoma mansoni; settings: at the tested concentrations, data not shown
Protocol: (§4) Finally, selectivity for Sm.TRPMPZQ was assessed by profiling responses on the F. hepatica (Fh.TRPMPZQ) and E. granulosus (Eg.TRPMPZQ) TRPMPZQ orthologs, as well as the schistosome TRPM paralog Sm.TRPMMCLZ, a distinct TRPM channel activated by meclonazepam. Meclonazepam is an anthelmintic benzodiazepine known for its toxicity to juvenile schistosome worms.
(§5) The Ca^2+ reporter assay was performed using a Fluorescence Imaging Plate Reader (FLIPR) system, as described in the Supporting Information. […]
as §2, §3
(§6) with DMSO as a negative control. […]
(§7) reader. […] The fluorescence
(§8) Untransfected HEK293 cells were used as a control.
(§9) 10% fetal bovine serum (FBS). […]
(§10) atmosphere containing 5% CO₂. Following incubation, the growth medium was removed and […]
(§11) buffer containing 2.5 mM probenecid in HBSS (with Ca²⁺ and Mg²⁺), 20 mM HEPES, 0.3% BSA (Sigma, A7030), and 0.03% L-ascorbic acid (Sigma). Cells were incubated for 40 minutes at 37 °C and subsequently for 20 minutes at room temperature. A total of seven PZQ derivatives were tested, using racemic PZQ included as a positive control on each assay plate. Drug dilutions were prepared in assay buffer without dye and probenecid and dispensed into separate flat-bottom 384-well plates. Calcium flux measurements were performed at room temperature using a […]
(§12) instrument (Molecular Devices). Baseline fluorescence was recorded for 20 seconds, followed by the addition of 5 µL of each drug solution, after which fluorescence was measured continuously for 250 seconds. […]

[4] = in vitro; settings: human, HepG2 cytotoxicity (CC50)
Protocol: (§13) Next, we conducted a more detailed investigation by performing dose–response assays with each compound on HepG2 hepatic epithelial cells, as the liver is one of the major organs affected in intestinal schistosomiasis.
(§14) More details are provided in the Supporting Information.
as §1
(§15) Male and female worms were placed in 96-well microplates (one worm per well) and incubated […]
(§16) to 72 hours. Brightfield timelapse images (100 images, 0.3-second intervals) were captured from each well before, immediately after, and every 24 hours following compound addition using an ImageXpress Micro Confocal High Content System equipped with a 2x objective. Image analysis was performed through a custom pipeline in CellProfiler software (v. 4.2.1, Windows OS).57 During analysis, the area of each worm and its displacement between consecutive image captures (i.e., images taken at successive time points) were measured using the parameters “Area” and “False Negative Rate” from the MeasureObjectSizeShape and MeasureObjectOverlap modules, respectively. These measurements were then modeled by a multilevel generalized linear statistical model. The effects of the experimental treatments on parasite motility were estimated with the integrated nested Laplace approximation (INLA) method, available in the INLA package of R (https://www.r-inla.org). The half-maximal inhibitory concentration (EC50) of each compound was calculated based on the worms' estimated motility using the […] 4-parameter logistic equation in GraphPad Prism version 9.0.0 for Windows (GraphPad Software, Boston, MA, USA; www.graphpad.com). […]
(§17) either at a fixed concentration (10 µM) or across a range of concentrations (0.0001–300 µM), or with DMSO as a negative control. Two hours before the end of the experiment (t0), a resazurin solution (final concentration: 0.01 mg/mL) was added to each well and the first fluorescence […]
(§18) reader. At the end of the incubation (t1), a second reading was performed. The fluorescence attributed solely to resorufin was measured by subtracting the fluorescence readings at t0 from those at t1. The results were expressed as percentual cell viability considering negative control

[5] = test system: HepG2 hepatic epithelial cells; test: in vitro; settings: for Selectivity Index (CC50/EC50), Female: HepG2 CC50 / female worm motility EC50, 48 h; for Selectivity Index (CC50/EC50), Male: HepG2 CC50 / male worm motility EC50, 48 h
Protocol: as §13, §14, §1, §15, §16, §17, §18

[6] = test system: juvenile schistosomes; test: Microscopy analysis of juvenile morphology and motility (viability score 0-3); settings: 10 μM, 72 h, Table S1
[7] = target: Sm.TRPMPZQ (wild-type) (Schistosoma mansoni, UniProt A0A5K4F0X5); test: Ca2+ reporter (FLIPR) activation assay, wild-type Sm.TRPMPZQ in HEK293 cells; type: cell-based; settings: for Emax: read-out: Bmax, wild-type Sm.TRPMPZQ activation
Protocol: as §5, §2, §3, §6, §7, §8, §9, §10
buffer containing 2.5 mM probenecid in HBSS (with Ca²⁺ and Mg²⁺), 20 mM HEPES, 0.3% BSA (Sigma, A7030), and 0.03% L-ascorbic acid (Sigma). Cells were incubated for 40 minutes at 37 °C and subsequently for 20 minutes at room temperature. […]
prepared in assay buffer without dye and probenecid and dispensed into separate flat-bottom 384-well plates. Calcium flux measurements were performed at room temperature using a […]
as §12

[8] = test system: Fh.TRPMPZQ; test: Ca2+ reporter (FLIPR) activation assay, Fh.TRPMPZQ in HEK293 cells; type: cell-based, Fasciola hepatica; settings: at the tested concentrations, data not shown
Protocol: as §4, §5, §2, §3, §6, §7, §8, §9, §10, §11, §12

[9] = Schistosoma mansoni, 0 h, female adult worms, 0 h (immediately after addition), single experiment or geometric mean, read-out: Female worm motility inhibition (EC50)
[10] = Schistosoma mansoni, 0 h, male adult worms, 0 h (immediately after addition), single experiment or geometric mean, read-out: Male worm motility inhibition (EC50)
[11] = Schistosoma mansoni, 0 h, male, 0 h, individual experiments, read-out: Male worm motility inhibition (EC50), values of independent experiments
[12] = Schistosoma mansoni, 24 h, female adult worms, 24 h, single experiment or geometric mean, read-out: Female worm motility inhibition (EC50)
[13] = Schistosoma mansoni, 24 h, male adult worms, 24 h, single experiment or geometric mean, read-out: Male worm motility inhibition (EC50)
[14] = Schistosoma mansoni, 24 h, male, 24 h, individual experiments, read-out: Male worm motility inhibition (EC50), values of independent experiments
[15] = Schistosoma mansoni, 48 h, female adult worms, 48 h, single experiment or geometric mean, read-out: Female worm motility inhibition (EC50)
[16] = Schistosoma mansoni, 48 h, male adult worms, 48 h, single experiment or geometric mean, read-out: Male worm motility inhibition (EC50)
[17] = Schistosoma mansoni, 48 h, male, 48 h, individual experiments, read-out: Male worm motility inhibition (EC50), values of independent experiments
[18] = Schistosoma mansoni, 72 h, female adult worms, 72 h, single experiment or geometric mean, read-out: Female worm motility inhibition (EC50)
[19] = Schistosoma mansoni, 72 h, male adult worms, 72 h, single experiment or geometric mean, read-out: Male worm motility inhibition (EC50)
[20] = Schistosoma mansoni, 72 h, male, 72 h, individual experiments, read-out: Male worm motility inhibition (EC50), values of independent experiments
[21] = female adult worms, 0 h (immediately after addition), single experiment or geometric mean, read-out: Female worm motility inhibition (EC50)
[22] = female adult worms, 24 h, single experiment or geometric mean, read-out: Female worm motility inhibition (EC50)
[23] = male adult worms, 0 h (immediately after addition), single experiment or geometric mean, read-out: Male worm motility inhibition (EC50)
[24] = male adult worms, 48 h, single experiment or geometric mean, read-out: Male worm motility inhibition (EC50)
[25] = male adult worms, 72 h, single experiment or geometric mean, read-out: Male worm motility inhibition (EC50)
[26] = male, 24 h, individual experiments, read-out: Male worm motility inhibition (EC50), values of independent experiments
[27] = male, 48 h, individual experiments, read-out: Male worm motility inhibition (EC50), values of independent experiments
[28] = male, 72 h, individual experiments, read-out: Male worm motility inhibition (EC50), values of independent experiments
[29] = values of independent experiments
[30] = Schistosoma mansoni, male, 0-72 h, read-out: EC50 against male adult worms (motility), span over incubation times
[31] = female adult worms, 72 h, single experiment or geometric mean, read-out: Female worm motility inhibition (EC50)

Chain of Sm.TRPMPZQ (wild-type) (A0A5K4F0X5 entry or part of it): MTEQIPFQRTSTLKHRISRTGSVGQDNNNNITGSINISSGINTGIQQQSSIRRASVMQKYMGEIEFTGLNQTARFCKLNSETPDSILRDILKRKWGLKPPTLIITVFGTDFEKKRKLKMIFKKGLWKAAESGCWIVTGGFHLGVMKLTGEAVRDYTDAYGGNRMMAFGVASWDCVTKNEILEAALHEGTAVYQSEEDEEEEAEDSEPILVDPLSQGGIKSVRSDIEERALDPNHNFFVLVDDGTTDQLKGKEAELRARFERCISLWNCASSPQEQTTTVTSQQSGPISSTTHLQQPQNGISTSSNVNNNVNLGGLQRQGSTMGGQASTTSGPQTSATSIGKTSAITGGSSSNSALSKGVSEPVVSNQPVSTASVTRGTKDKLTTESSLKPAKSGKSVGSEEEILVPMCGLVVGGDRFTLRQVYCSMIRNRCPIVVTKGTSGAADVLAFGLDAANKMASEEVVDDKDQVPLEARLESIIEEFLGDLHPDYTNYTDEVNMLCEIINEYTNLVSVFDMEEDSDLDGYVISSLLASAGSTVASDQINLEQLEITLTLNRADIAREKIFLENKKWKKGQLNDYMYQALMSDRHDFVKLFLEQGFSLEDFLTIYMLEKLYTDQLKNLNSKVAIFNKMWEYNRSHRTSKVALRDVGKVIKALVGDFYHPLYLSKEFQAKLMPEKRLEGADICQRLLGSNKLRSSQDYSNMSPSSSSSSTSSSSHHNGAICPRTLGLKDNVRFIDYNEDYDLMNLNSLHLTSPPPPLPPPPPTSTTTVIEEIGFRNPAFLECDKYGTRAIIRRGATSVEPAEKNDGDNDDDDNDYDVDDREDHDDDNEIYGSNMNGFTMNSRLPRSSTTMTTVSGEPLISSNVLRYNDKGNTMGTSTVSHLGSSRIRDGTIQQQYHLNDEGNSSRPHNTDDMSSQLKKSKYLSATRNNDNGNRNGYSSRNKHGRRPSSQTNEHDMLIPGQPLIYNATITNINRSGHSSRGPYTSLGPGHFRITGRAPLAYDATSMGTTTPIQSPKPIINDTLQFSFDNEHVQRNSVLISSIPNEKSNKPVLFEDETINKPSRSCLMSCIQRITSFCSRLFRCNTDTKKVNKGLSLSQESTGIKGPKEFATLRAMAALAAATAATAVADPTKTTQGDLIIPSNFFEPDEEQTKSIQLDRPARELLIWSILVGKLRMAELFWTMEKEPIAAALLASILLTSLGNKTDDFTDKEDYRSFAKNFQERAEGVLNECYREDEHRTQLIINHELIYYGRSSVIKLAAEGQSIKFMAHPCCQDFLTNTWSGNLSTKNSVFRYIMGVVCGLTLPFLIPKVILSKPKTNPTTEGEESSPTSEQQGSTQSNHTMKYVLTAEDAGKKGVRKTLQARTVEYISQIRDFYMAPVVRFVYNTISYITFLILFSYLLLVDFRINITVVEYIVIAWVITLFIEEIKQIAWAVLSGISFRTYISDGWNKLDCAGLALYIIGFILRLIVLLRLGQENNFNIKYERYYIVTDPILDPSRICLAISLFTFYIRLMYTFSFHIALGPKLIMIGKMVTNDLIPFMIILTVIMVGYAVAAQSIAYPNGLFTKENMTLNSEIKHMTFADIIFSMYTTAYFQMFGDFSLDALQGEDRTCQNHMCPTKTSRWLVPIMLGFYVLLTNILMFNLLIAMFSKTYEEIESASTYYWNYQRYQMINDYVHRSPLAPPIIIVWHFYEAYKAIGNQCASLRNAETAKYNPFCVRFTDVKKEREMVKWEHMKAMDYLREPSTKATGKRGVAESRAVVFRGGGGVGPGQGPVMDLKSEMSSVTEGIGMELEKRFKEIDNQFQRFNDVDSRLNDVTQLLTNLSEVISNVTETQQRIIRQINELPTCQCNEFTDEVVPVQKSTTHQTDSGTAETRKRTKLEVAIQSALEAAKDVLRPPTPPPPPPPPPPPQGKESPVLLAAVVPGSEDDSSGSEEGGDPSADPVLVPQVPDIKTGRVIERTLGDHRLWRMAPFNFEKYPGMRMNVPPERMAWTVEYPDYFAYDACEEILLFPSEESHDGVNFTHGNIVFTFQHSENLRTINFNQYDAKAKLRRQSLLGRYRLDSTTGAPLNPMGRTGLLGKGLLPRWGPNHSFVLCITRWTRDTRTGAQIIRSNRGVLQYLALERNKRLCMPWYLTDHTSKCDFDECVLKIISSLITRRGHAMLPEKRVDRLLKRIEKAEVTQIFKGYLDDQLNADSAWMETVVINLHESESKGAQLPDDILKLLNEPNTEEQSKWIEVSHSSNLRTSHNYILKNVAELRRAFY
Chain of Eg.TRPMPZQ (W6UVV9 entry or part of it): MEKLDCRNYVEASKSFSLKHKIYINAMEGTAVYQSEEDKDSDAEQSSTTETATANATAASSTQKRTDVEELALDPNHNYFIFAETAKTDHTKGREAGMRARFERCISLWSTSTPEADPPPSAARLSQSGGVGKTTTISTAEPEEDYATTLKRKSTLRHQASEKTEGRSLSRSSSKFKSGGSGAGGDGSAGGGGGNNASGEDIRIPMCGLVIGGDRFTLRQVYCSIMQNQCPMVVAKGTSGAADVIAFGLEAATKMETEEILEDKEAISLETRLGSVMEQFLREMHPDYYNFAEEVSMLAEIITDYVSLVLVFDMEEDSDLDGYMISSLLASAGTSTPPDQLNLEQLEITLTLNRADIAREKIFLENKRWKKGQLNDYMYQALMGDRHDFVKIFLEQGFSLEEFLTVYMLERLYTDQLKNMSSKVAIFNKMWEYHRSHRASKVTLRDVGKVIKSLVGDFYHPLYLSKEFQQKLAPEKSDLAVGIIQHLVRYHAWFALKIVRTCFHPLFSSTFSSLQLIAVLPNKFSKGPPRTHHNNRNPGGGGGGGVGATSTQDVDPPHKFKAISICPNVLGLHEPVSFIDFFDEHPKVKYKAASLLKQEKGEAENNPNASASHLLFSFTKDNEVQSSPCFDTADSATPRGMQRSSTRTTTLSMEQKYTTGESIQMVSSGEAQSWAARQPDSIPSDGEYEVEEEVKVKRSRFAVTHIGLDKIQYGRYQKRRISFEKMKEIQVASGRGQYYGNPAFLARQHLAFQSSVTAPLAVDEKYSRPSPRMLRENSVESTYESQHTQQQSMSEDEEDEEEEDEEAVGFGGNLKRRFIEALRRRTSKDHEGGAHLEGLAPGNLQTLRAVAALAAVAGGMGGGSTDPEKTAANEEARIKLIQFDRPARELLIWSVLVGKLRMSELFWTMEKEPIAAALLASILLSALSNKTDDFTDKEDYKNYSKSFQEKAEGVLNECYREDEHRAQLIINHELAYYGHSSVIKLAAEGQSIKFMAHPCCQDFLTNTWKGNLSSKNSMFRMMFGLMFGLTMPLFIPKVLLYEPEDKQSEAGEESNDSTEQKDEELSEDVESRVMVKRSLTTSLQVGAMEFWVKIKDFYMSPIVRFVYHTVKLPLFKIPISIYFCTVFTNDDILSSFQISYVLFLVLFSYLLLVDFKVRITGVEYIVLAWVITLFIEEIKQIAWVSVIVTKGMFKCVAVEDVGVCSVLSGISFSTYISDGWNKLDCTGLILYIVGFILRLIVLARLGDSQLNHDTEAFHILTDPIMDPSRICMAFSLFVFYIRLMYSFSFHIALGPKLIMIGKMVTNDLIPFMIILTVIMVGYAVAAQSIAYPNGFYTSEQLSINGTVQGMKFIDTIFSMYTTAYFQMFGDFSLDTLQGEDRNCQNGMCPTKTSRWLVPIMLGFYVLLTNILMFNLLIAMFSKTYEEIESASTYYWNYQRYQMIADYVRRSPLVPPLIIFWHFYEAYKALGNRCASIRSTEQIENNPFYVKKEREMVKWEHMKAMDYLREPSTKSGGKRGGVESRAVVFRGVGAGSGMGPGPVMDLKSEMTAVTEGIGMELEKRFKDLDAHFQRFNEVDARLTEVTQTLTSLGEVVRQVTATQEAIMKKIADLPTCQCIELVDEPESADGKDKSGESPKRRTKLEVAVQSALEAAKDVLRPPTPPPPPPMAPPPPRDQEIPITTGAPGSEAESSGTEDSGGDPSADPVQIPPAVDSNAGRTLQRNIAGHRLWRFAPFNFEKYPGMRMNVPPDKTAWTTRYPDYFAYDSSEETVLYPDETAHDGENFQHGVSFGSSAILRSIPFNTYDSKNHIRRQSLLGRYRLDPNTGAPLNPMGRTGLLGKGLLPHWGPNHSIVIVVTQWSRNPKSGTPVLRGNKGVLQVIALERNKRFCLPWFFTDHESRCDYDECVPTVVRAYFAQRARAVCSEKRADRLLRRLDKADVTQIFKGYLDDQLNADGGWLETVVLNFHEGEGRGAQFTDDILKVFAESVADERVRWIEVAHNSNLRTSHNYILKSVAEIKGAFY

Row | SMILES | Emax [1] [%] | EC50 [2, 9] [µM] | EC50 [2, 10] [µM] | EC50 [2, 11] [µM] | EC50 [2, 12] [µM] | EC50 [2, 13] [µM] | EC50 [2, 14] [µM] | EC50 [2, 15] [µM] | EC50 [2, 16] [µM] | EC50 [2, 18] [µM] | EC50 [2, 19] [µM] | EC50 [2, 20] [µM] | EC50 [2, 22] [µM] | EC50 [2, 26] | EC50 [2, 27] | EC50 [2, 28] | CC50 at 48 h [4] [µM] | CC50 at 48 h [4, 29] [µM] | Selectivity Index (CC50/EC50), Female [5] | Selectivity Index (CC50/EC50), Male [5] | further results
1 | O=C(C1CCCCC1)N1CC(=O)N2CCc3ccc([N+](=O)[O-])cc3C2C1 (centres unmarked) [Compound 2, 9-NO2–PZQ] | 114 ± 10.5 | 27.7 | 10.7 | 10 | 28.8 | 14.3 | 10.3 | 29.1 | 15.9 | 30 | 15.4 | 11.9 | 29 | 19.8 µM | 21.7 µM | 19.9 µM | 368 | 354 | 12.7 and 13 | 23.1 and 23 | EC50 [2, 17]: 11.6 µM; EC50 [2, 21]: 27.7 µM; EC50 ([2]; female adult worms, 48 h, single experiment or geometric mean, read-out: Female worm motility inhibition (EC50)): 29 µM; EC50 [2, 23]: 11 µM; EC50 ([2]; male adult worms, 24 h, single experiment or geometric mean, read-out: Male worm motility inhibition (EC50)): 14 µM; EC50 [2, 24]: 16 µM; EC50 [2, 25]: 15 µM; activation of Sm.TRPMMCLZ [3]: did not activate; number of juvenile worms with viability score 0 [6]: 70; number of juvenile worms with viability score 1 [6]: 3; number of juvenile worms with viability score 2 [6]: 7; number of juvenile worms with viability score 3 [6]: 74; EC50 ([7]; 0.001 to 100 μM): 13.5 ± 0.49 µM; Emax [7]: 66.6 ± 1.98%; activation of Fh.TRPMPZQ [8]: did not activate
2 | [N-]=[N+]=Nc1ccc2c(c1)C1CN(C(=O)C3CCCCC3)CC(=O)N1CC2 (centres unmarked) [Compound 4] | 145 ± 14.6 | 6.7 | 2.3 | 2.83 | 3.15 | 1.8 | 2.56 | 9.4 | 1.6 | 3.48 | 1.3 | 1.22 | 3.1 | 1.42 µM and 1.74 µM | 2.37 µM and 1.1 µM and 1.71 µM | 1 µM and 1.72 µM | 156 | 155 | 16.6 and 17 | 97.7 and 98 | EC50 [2, 30]: 1.3 to 2.3 µM; EC50 [2, 31]: 3.5 µM; EC50 ([2]; female, 0 h, individual experiments, read-out: Female worm motility inhibition (EC50), values of independent experiments): 14.8 µM and 3.02 µM; EC50 ([2]; female, 48 h, individual experiments, read-out: Female worm motility inhibition (EC50), values of independent experiments): 26.8 µM and 3.34 µM; EC50 ([2]; male, 0 h, individual experiments, read-out: Male worm motility inhibition (EC50), values of independent experiments): 1.93 µM; activation of Sm.TRPMMCLZ [3]: did not activate; number of juvenile worms with viability score 0 [6]: 48; number of juvenile worms with viability score 1 [6]: 4; number of juvenile worms with viability score 2 [6]: 25; number of juvenile worms with viability score 3 [6]: 12; EC50 ([7]; 0.001 to 100 μM): 0.89 ± 0.03 µM; Emax [7]: 80.5 ± 2.19%; activation of Fh.TRPMPZQ [8]: did not activate
3 | O=C(C1CCCCC1)N1CC(=O)N2CCc3ccc(-n4cc(C5=CCCCC5)nn4)cc3C2C1 (centres unmarked) [Compound 5b] | 10.4 ± 0.31 | 101 | 32.7 | 31.6 | 96.2 | 47 | 50.4 | 95 | 49.2 | 89.1 | 40.5 | 44.7 | 96 | 43.8 µM | 44.6 µM | 36.6 µM | 28.5 | 28.7 | 0.3 | 0.6 | EC50 for Eg.TRPMPZQ activation [1]: No signal; EC50 [2, 17]: 54.2 µM; EC50 ([2]; Schistosoma mansoni, female, 0-72 h, read-out: EC50 against female adult worms (motility), span over incubation times): > 30 µM; EC50 [2, 30]: > 30 µM; EC50 [2, 21]: 101 µM; EC50 [2, 31]: 89 µM; EC50 [2, 23]: 33 µM; EC50 [2, 24]: 49 µM; EC50 [2, 25]: 40 µM; Selectivity Index (SI), sex not specified ([5]; HepG2 vs adult worms, 48 h): < 1; number of juvenile worms with viability score 0 [6]: 21; number of juvenile worms with viability score 1 [6]: 1; number of juvenile worms with viability score 2 [6]: 3; number of juvenile worms with viability score 3 [6]: 7; Bmax, wild-type Sm.TRPMPZQ activation [7]: No activity; EC50 for wild-type Sm.TRPMPZQ activation ([7]; 0.001 to 100 μM): failed to activate; also recorded: No activity
